Data published in US20230113037A1 (Bayer Aktiengesellschaft, priority 2019, published 2023).

How the values were obtained:
AHR [1] = target: T1, AHR (Homo sapiens, UniProt P35869); assay: In vitro assay 1: antagonism in human cell line (AHR transactivation, firefly luciferase reporter, kynurenic acid prestimulated); assay type: cell-based; conditions: AHR Antagonism Human IC50 [M]
T1 construct: U87 MG glioblastoma cells (ATCC #HTB-14) endogenously expressing AHR; endogenous in cells; host or cells: U87 MG glioblastoma cells (ATCC #HTB-14)
T1 sequence (P35869 11-848): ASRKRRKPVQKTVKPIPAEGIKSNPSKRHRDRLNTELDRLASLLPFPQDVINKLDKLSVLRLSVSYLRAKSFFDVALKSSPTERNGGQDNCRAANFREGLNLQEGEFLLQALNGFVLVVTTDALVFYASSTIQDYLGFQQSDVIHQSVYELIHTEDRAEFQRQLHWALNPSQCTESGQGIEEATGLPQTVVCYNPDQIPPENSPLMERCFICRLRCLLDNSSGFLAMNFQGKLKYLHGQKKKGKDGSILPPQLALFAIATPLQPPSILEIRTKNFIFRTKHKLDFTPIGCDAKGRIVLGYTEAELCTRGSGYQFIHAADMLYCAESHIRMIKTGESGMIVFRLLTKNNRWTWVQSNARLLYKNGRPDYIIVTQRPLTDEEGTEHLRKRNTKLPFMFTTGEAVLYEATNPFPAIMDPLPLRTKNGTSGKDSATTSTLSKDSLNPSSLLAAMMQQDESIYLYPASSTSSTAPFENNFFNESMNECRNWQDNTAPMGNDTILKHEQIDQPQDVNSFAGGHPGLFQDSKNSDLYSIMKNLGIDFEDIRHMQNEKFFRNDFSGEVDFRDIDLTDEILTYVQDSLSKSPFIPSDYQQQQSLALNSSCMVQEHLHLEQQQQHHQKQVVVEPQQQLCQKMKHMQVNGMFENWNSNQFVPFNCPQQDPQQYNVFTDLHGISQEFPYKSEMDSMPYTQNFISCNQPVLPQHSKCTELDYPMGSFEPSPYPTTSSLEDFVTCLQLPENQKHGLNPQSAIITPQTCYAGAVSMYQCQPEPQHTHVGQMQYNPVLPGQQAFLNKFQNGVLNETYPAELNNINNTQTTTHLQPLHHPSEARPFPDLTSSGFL
Procedure: Examples were tested in selected biological assays one or more times. When tested more than once, data are reported as either average values or as median values, wherein • the average value, also referred to as the arithmetic mean value, represents the sum of the values obtained divided by the number of times tested, and • the median value represents the middle number of the group of values when ranked in ascending or descending order. If the number of values in the data set is odd, the median is the middle value. If the number of values in the data set is even, the median is the arithmetic mean of the two middle values.
Transactivation assays were carried out in U87 MG glioblastoma cells (ATCC #HTB-14) endogenously expressing AHR. In addition the cells were stably transfected with an AHR inducible firefly luciferase reporter gene construct that carried AHR-binding sites (DRE) in its promoter and a renilla reporter gene construct with constitutively active promoter. Kynurenic acid is an endogenous AHR activating ligand and was used to prestimulate test cells prior to testing the antagonistic properties of compounds.
As positive inhibition control cells supplemented with 150 μM kynurenic acid were incubated in presence of 5 μM Staurosporin. Normalization was done by positive and negative controls.
Firefly luciferase and Renilla activity was determined by the DualGlo Luciferase Assay System (Promega, #2920). Renilla activity was used to assess toxic effects of compounds.

AHR [2] = target: T2, AHR (Mus musculus, UniProt P30561); assay: In vitro assay 3: antagonism in mouse cell line (AHR transactivation, firefly luciferase reporter, kynurenic acid prestimulated); assay type: cell-based; conditions: mouse Hepa 1c1c7 cells, 200 μM kynurenic acid, 20 hours, read-out: AHR Antagonism Mouse IC50
T2 sequence (P30561 1-848 P471L/N533S/M589L): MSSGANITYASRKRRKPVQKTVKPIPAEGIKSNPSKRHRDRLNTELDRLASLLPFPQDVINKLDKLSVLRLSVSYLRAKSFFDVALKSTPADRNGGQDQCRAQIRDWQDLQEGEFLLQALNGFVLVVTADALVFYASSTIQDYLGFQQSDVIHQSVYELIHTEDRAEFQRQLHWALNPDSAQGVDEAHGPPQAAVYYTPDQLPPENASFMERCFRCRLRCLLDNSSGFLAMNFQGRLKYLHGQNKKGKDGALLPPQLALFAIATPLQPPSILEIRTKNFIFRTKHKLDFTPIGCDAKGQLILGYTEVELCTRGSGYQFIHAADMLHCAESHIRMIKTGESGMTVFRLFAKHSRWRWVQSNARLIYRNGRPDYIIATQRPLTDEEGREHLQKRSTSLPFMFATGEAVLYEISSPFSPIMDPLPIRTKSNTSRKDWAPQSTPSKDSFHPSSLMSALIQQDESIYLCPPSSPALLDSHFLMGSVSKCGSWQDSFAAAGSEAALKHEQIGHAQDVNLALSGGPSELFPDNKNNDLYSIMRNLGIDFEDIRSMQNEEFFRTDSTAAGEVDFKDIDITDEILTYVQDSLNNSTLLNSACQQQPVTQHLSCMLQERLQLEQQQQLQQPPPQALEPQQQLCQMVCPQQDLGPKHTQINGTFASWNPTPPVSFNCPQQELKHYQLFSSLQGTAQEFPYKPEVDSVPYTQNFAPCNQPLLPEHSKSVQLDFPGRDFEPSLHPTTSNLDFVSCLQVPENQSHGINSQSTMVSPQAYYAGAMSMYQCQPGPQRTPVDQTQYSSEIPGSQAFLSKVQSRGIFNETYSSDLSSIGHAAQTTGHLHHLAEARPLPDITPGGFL
Outline: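 Kynurenic acid-prestimulated mouse reporter cells; stable AHR-inducible firefly luc construct with DRE sites in promoter. No-agonist wells = positive inhibition ctrl. Luminescence normalized to pos/neg ctrls; n>1 reported as mean or median.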

IC50 (AHR [1])	SMILES	further results
7.53e-07 M	Cc1ccc2c(c1)nc(N[C@@H]1CCCCNC1=O)n1nc(-c3cnn(C)c3)nc21 [Example 147, (3R)-3-{[8-methyl-2-(1-methyl-1H-pyrazol-4-yl)[1,2,4]triazolo[1,5-c]quinazolin-5-yl]amino}azepan-2-one]	
9.2e-10 M	Cc1cc(-c2nc3c4ccccc4nc(N[C@@H]4CCCCNC4=O)n3n2)ccc1F [Example 626, (3R)-3-{[2-(4-fluoro-3-methylphenyl)[1,2,4]triazolo[1,5-c]quinazolin-5-yl]amino}azepan-2-one]	
1.97e-06 M	Cn1cc(-c2nc3c4ccc(Br)cc4nc(N[C@@H]4CCCCNC4=O)n3n2)cn1 [Example 230, (3R)-3-{[8-bromo-2-(1-methyl-1H-pyrazol-4-yl)[1,2,4]triazolo[1,5-c]quinazolin-5-yl]amino}azepan-2-one]	
1.62e-10 M	O=C1NCCCC[C@H]1Nc1nc2ccccc2c2nc(-c3ccc(F)cc3)nn12 [Example 74, (3R)-3-{[2-(4-fluorophenyl)[1,2,4]triazolo[1,5-c]quinazolin-5-yl]amino}azepan-2-one]	
9.72e-10 M	Cc1cc(-c2nc3c4ccccc4nc(N[C@@H]4CCCCNC4=O)n3n2)cs1 [Example 352, (3R)-3-{[2-(5-methylthiophen-3-yl)[1,2,4]triazolo[1,5-c]quinazolin-5-yl]amino}azepan-2-one]	
3.56e-10 M	O=C1NCCCC[C@H]1Nc1nc2ccccc2c2nc(-c3ccc(F)cc3F)nn12 [Example 201, (3R)-3-{[2-(2,4-difluorophenyl)[1,2,4]triazolo[1,5-c]quinazolin-5-yl]amino}azepan-2-one]	
5.35e-06 M	COc1ccc2c(c1)nc(N[C@@H]1CCCCNC1=O)n1nc(-c3cnn(C)c3)nc21 [Example 550]	
2.24e-09 M	Cc1sccc1-c1nc2c3ccccc3nc(N[C@@H]3CCCCNC3=O)n2n1 [Example 346, (3R)-3-{[2-(2-methylthiophen-3-yl)[1,2,4]triazolo[1,5-c]quinazolin-5-yl]amino}azepan-2-one]	
> 2e-05 M	Cn1cc(-c2nc3c4ccccc4nc(NC4CCNC4=O)n3n2)cn1 (single isomer, unassigned) [Example 19, 3-{[2-(1-methyl-1H-pyrazol-4-yl)[1,2,4]triazolo[1,5-c]quinazolin-5-yl]amino}pyrrolidin-2-one]	
3.17e-08 M	COc1cccc(-c2nc3c4ccc(C)cc4nc(N[C@@H]4CCCCNC4=O)n3n2)c1 [Example 145, (3R)-3-{[2-(3-methoxyphenyl)-8-methyl[1,2,4]triazolo[1,5-c]quinazolin-5-yl]amino}azepan-2-one]	
1.17e-07 M	CN(C)c1ccccc1-c1nc2c3ccccc3nc(N[C@@H]3CCCCNC3=O)n2n1 [Example 455, (3R)-3-({2-[2-(dimethylamino)phenyl][1,2,4]triazolo[1,5-c]quinazolin-5-yl}amino)azepan-2-one]	

Further lines, the molecule ahead of its results:

SMILES	IC50 (AHR [1])	further results
Cn1cc(-c2nc3c4cccc(C(C)(C)O)c4nc(N[C@@H]4CCCCNC4=O)n3n2)cn1 [Example 861, (3R)-3-{[7-(2-hydroxypropan-2-yl)-2-(1-methyl-1H-pyrazol-4-yl)[1,2,4]triazolo[1,5-c]quinazolin-5-yl]amino}azepan-2-one]		IC50 (AHR [1]; firefly luciferase reporter): 1.34e-07 M
COc1ccc(-c2nc3c4ccc(OC)cc4nc(N[C@@H]4CNCCNC4=O)n3n2)cc1 [Example 272, (6R)-6-{[8-methoxy-2-(4-methoxyphenyl)[1,2,4]triazolo[1,5-c]quinazolin-5-yl]amino}-1,4-diazepan-5-one]	2.77e-06 M	
COc1cccc(-c2nc3c4ccccc4nc(NC4(C(N)=O)CCCC4)n3n2)c1 [Example 99, 1-{[2-(3-methoxyphenyl)[1,2,4]triazolo[1,5-c]quinazolin-5-yl]amino}cyclopentane-1-carboxamide]	6.78e-08 M	
O=C1NCCCC[C@H]1Nc1nc2c(C(F)(F)F)cccc2c2nc(-c3nc(C4CC4)cs3)nn12 [Example 747, (3R)-3-{[2-(4-cyclopropyl-1,3-thiazol-2-yl)-7-(trifluoromethyl)[1,2,4]triazolo[1,5-c]quinazolin-5-yl]amino}azepan-2-one]	1.65e-09 M	
Cn1cc(-c2nc3c4c(C5CC5)cccc4nc(N[C@@H]4CCCCNC4=O)n3n2)cn1 [Example 177, (3R)-3-{[10-cyclopropyl-2-(1-methyl-1H-pyrazol-4-yl)[1,2,4]triazolo[1,5-c]quinazolin-5-yl]amino}azepan-2-one]	7.35e-07 M	
COc1cccc(-c2nc3c4ccc(F)cc4nc(N[C@H]4CCNC4=O)n3n2)c1 [Example 149, (3S)-3-{[8-fluoro-2-(3-methoxyphenyl)[1,2,4]triazolo[1,5-c]quinazolin-5-yl]amino}pyrrolidin-2-one]	1.81e-07 M	
Cn1cc(-c2nc3c4ccc(C(F)(F)F)cc4nc(N[C@@H]4CCCCNC4=O)n3n2)cn1 [Example 227, (3R)-3-{[2-(1-methyl-1H-pyrazol-4-yl)-8-(trifluoromethyl)[1,2,4]triazolo[1,5-c]quinazolin-5-yl]amino}azepan-2-one]	2.65e-06 M	
COc1cccc2c1nc(N[C@@H]1CCCCNC1=O)n1nc(-c3cn[nH]c3)nc21 [Example 755, (3R)-3-{[7-methoxy-2-(1H-pyrazol-4-yl)[1,2,4]triazolo[1,5-c]quinazolin-5-yl]amino}azepan-2-one]	9.19e-06 M	
CC[C@@H](Nc1nc2ccccc2c2nc(-c3ccc(Cl)cc3OC(F)F)nn12)C(N)=O [Example 531, (2R)-2-({2-[4-chloro-2-(difluoromethoxy)phenyl][1,2,4]triazolo[1,5-c]quinazolin-5-yl}amino)butanamide]	1.29e-09 M	
CN1CCCC[C@H](Nc2nc3ccccc3c3nc(-c4ccc(Cl)cc4OC(F)F)nn23)C1=O [Example 530, (3S)-3-({2-[4-chloro-2-(difluoromethoxy)phenyl][1,2,4]triazolo[1,5-c]quinazolin-5-yl}amino)-1-methylazepan-2-one]	> 2e-05 M	
Cn1cc(-c2nc3c4ccccc4nc(NC4CNCCNC4=O)n3n2)cn1 (single isomer, unassigned) [Example 24, 6-{[2-(1-methyl-1H-pyrazol-4-yl)[1,2,4]triazolo[1,5-c]quinazolin-5-yl]amino}-1,4-diazepan-5-one]	> 4e-05 M	
CCCC[C@H](Nc1nc2ccccc2c2nc(-c3ccccc3OC(F)(F)F)nn12)C(N)=O [Example 467, N^2-{2-[2-(trifluoromethoxy)phenyl][1,2,4]triazolo[1,5-c]quinazolin-5-yl}norleucinamide]		IC50 (AHR [2]): 32.8 nM
